Source: PubChem BioAssay AID1963963 (Molecular Pharmacology Branch, DTP, NCI, 2024)

Test system: 958667-338-R-J2-PDC tumor spheroids viability
Assay: Anticancer human tumor 958667-338-R-J2-PDC patient-derived colon adenocarcinoma cell line growth inhibition [PI3K]
Details: spheroids with HUVEC and MSC; for IC50: curve of first compound; for viability, T/C: stronger effect = lower value
Summary of the method: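 We assembled tumor spheroids that included a stromal compartment of HUVEC and MSCs, then exposed them to targeted agents alone and together with PI3K pathway inhibitors. Concentration series descended by half-log from clinically achievable Cmax levels. Viability served as the endpoint.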

[1] = second compound 0.0316 µM, first compound 0.000316 µM
[2] = second compound 0.0316 µM, first compound 0.001 µM
[3] = second compound 0.0316 µM, first compound 0.00316 µM
[4] = second compound 0.0316 µM, first compound 0.01 µM
[5] = second compound 0.0316 µM, first compound 0.0316 µM
[6] = second compound 0.0316 µM, first compound 0.1 µM
[7] = second compound 0.1 µM, first compound 0.000316 µM
[8] = second compound 0.1 µM, first compound 0.001 µM
[9] = second compound 0.1 µM, first compound 0.00316 µM
[10] = second compound 0.1 µM, first compound 0.01 µM
[11] = second compound 0.1 µM, first compound 0.0316 µM
[12] = second compound 0.1 µM, first compound 0.1 µM
[13] = second compound 0.316 µM, first compound 0.000316 µM
[14] = second compound 0.316 µM, first compound 0.001 µM
[15] = second compound 0.316 µM, first compound 0.00316 µM
[16] = second compound 0.316 µM, first compound 0.01 µM
[17] = second compound 0.316 µM, first compound 0.0316 µM
[18] = second compound 0.316 µM, first compound 0.1 µM
[19] = second compound 1 µM, first compound 0.000316 µM
[20] = second compound 1 µM, first compound 0.001 µM
[21] = second compound 1 µM, first compound 0.00316 µM
[22] = second compound 1 µM, first compound 0.01 µM
[23] = second compound 1 µM, first compound 0.0316 µM
[24] = second compound 1 µM, first compound 0.1 µM
[25] = second compound 3.16 µM, first compound 0.000316 µM
[26] = second compound 3.16 µM, first compound 0.001 µM
[27] = second compound 3.16 µM, first compound 0.00316 µM
[28] = second compound 3.16 µM, first compound 0.01 µM
[29] = second compound 3.16 µM, first compound 0.0316 µM
[30] = second compound 3.16 µM, first compound 0.1 µM
[31] = second compound 10 µM, first compound 0.000316 µM
[32] = second compound 10 µM, first compound 0.001 µM
[33] = second compound 10 µM, first compound 0.00316 µM
[34] = second compound 10 µM, first compound 0.01 µM
[35] = second compound 10 µM, first compound 0.0316 µM
[36] = second compound 10 µM, first compound 0.1 µM
[37] = second compound 0.0316 µM, first compound 0.316 µM
[38] = second compound 0.0316 µM, first compound 1 µM
[39] = second compound 0.0316 µM, first compound 3.16 µM
[40] = second compound 0.0316 µM, first compound 10 µM
[41] = second compound 0.1 µM, first compound 0.316 µM
[42] = second compound 0.1 µM, first compound 1 µM
[43] = second compound 0.1 µM, first compound 3.16 µM
[44] = second compound 0.1 µM, first compound 10 µM
[45] = second compound 0.316 µM, first compound 0.316 µM
[46] = second compound 0.316 µM, first compound 1 µM
[47] = second compound 0.316 µM, first compound 3.16 µM
[48] = second compound 0.316 µM, first compound 10 µM
[49] = second compound 1 µM, first compound 0.316 µM
[50] = second compound 1 µM, first compound 1 µM
[51] = second compound 1 µM, first compound 3.16 µM
[52] = second compound 1 µM, first compound 10 µM
[53] = second compound 3.16 µM, first compound 0.316 µM
[54] = second compound 3.16 µM, first compound 1 µM
[55] = second compound 3.16 µM, first compound 3.16 µM
[56] = second compound 3.16 µM, first compound 10 µM
[57] = second compound 10 µM, first compound 0.316 µM
[58] = second compound 10 µM, first compound 1 µM
[59] = second compound 10 µM, first compound 3.16 µM
[60] = second compound 10 µM, first compound 10 µM
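Further: spheroids exposed to compounds for seven days before readout.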

Structure (SMILES): CC(=O)c1c(C)c2cnc(Nc3ccc(N4CCNCC4)cn3)nc2n(C2CCCC2)c1=O + CC(Nc1ncnc2nc[nH]c12)c1cc2cccc(Cl)c2c(=O)n1-c1ccccc1
- IC50 (second compound 0.0316 µM): > 0.1 µM
- IC50 (second compound 0.1 µM): > 0.1 µM
- IC50 (second compound 0.316 µM): > 0.1 µM
- IC50 (second compound 1 µM): > 0.1 µM
- IC50 (second compound 3.16 µM): > 0.1 µM
- IC50 (second compound 10 µM): > 0.1 µM
- viability, T/C [1]: 106%
- viability, T/C [2]: 101%
- viability, T/C [3]: 95.3%
- viability, T/C [4]: 117%
- viability, T/C [5]: 90.2%
- viability, T/C [6]: 91.6%
- viability, T/C [7]: 117%
- viability, T/C [8]: 103%
- viability, T/C [9]: 89.2%
- viability, T/C [10]: 96.8%
- viability, T/C [11]: 105%
- viability, T/C [12]: 74.4%
- viability, T/C [13]: 98.6%
- viability, T/C [14]: 89.5%
- viability, T/C [15]: 91.3%
- viability, T/C [16]: 103%
- viability, T/C [17]: 118%
- viability, T/C [18]: 83.1%
- viability, T/C [19]: 99.3%
- viability, T/C [20]: 126%
- viability, T/C [21]: 95.4%
- viability, T/C [22]: 106%
- viability, T/C [23]: 104%
- viability, T/C [24]: 87.9%
- viability, T/C [25]: 108%
- viability, T/C [26]: 71.5%
- viability, T/C [27]: 118%
- viability, T/C [28]: 97.5%
- viability, T/C [29]: 97%
- viability, T/C [30]: 95.7%
- viability, T/C [31]: 103%
- viability, T/C [32]: 79.5%
- viability, T/C [33]: 95%
- viability, T/C [34]: 101%
- viability, T/C [35]: 90.4%
- viability, T/C [36]: 67.6%

Structure (SMILES): CC(C)n1nc(-c2ccc3oc(N)nc3c2)c2c(N)ncnc21 + CC(Nc1ncnc2nc[nH]c12)c1cc2cccc(Cl)c2c(=O)n1-c1ccccc1
- IC50 (second compound 0.0316 µM): 0.0749 µM
- IC50 (second compound 0.1 µM): 0.0717 µM
- IC50 (second compound 0.316 µM): 0.0779 µM
- IC50 (second compound 1 µM): 0.0829 µM
- IC50 (second compound 3.16 µM): 0.0593 µM
- IC50 (second compound 10 µM): 0.0614 µM
- viability, T/C [1]: 96.8%
- viability, T/C [2]: 95.3%
- viability, T/C [3]: 98.5%
- viability, T/C [4]: 112%
- viability, T/C [5]: 73.6%
- viability, T/C [6]: 42.1%
- viability, T/C [7]: 127%
- viability, T/C [8]: 101%
- viability, T/C [9]: 107%
- viability, T/C [10]: 92.8%
- viability, T/C [11]: 74.7%
- viability, T/C [12]: 39.4%
- viability, T/C [13]: 95.2%
- viability, T/C [14]: 84.7%
- viability, T/C [15]: 90.8%
- viability, T/C [16]: 98.9%
- viability, T/C [17]: 69.2%
- viability, T/C [18]: 44.7%
- viability, T/C [19]: 95.2%
- viability, T/C [20]: 92.8%
- viability, T/C [21]: 82.4%
- viability, T/C [22]: 100%
- viability, T/C [23]: 73.9%
- viability, T/C [24]: 45.4%
- viability, T/C [25]: 86%
- viability, T/C [26]: 91.4%
- viability, T/C [27]: 98.5%
- viability, T/C [28]: 89.3%
- viability, T/C [29]: 60.7%
- viability, T/C [30]: 41.2%
- viability, T/C [31]: 100%
- viability, T/C [32]: 75.1%
- viability, T/C [33]: 70.4%
- viability, T/C [34]: 83.5%
- viability, T/C [35]: 71.8%
- viability, T/C [36]: 33.7%

Structure (SMILES): CC1(C)CCC(CN2CCN(c3ccc(C(=O)NS(=O)(=O)c4ccc(NCC5CCOCC5)c([N+](=O)[O-])c4)c(Oc4cnc5[nH]ccc5c4)c3)CC2)=C(c2ccc(Cl)cc2)C1 + CC(Nc1ncnc2nc[nH]c12)c1cc2cccc(Cl)c2c(=O)n1-c1ccccc1
- IC50 (second compound 0.0316 µM): > 10 µM
- IC50 (second compound 0.1 µM): > 10 µM
- IC50 (second compound 0.316 µM): > 10 µM
- IC50 (second compound 1 µM): > 10 µM
- IC50 (second compound 3.16 µM): > 10 µM
- IC50 (second compound 10 µM): > 10 µM
- viability, T/C [5]: 107%
- viability, T/C [6]: 93.6%
- viability, T/C [37]: 101%
- viability, T/C [38]: 93%
- viability, T/C [39]: 119%
- viability, T/C [40]: 69.9%
- viability, T/C [11]: 96.3%
- viability, T/C [12]: 102%
- viability, T/C [41]: 90.6%
- viability, T/C [42]: 94.6%
- viability, T/C [43]: 107%
- viability, T/C [44]: 51.2%
- viability, T/C [17]: 101%
- viability, T/C [18]: 106%
- viability, T/C [45]: 104%
- viability, T/C [46]: 116%
- viability, T/C [47]: 105%
- viability, T/C [48]: 80.3%
- viability, T/C [23]: 90.1%
- viability, T/C [24]: 96.2%
- viability, T/C [49]: 100%
- viability, T/C [50]: 100%
- viability, T/C [51]: 101%
- viability, T/C [52]: 76.8%
- viability, T/C [29]: 93.4%
- viability, T/C [30]: 108%
- viability, T/C [53]: 94.4%
- viability, T/C [54]: 93.1%
- viability, T/C [55]: 99.9%
- viability, T/C [56]: 54.5%
- viability, T/C [35]: 93.2%
- viability, T/C [36]: 84.3%
- viability, T/C [57]: 101%
- viability, T/C [58]: 88%
- viability, T/C [59]: 97.7%
- viability, T/C [60]: 68.2%

Structure (SMILES): CCCS(=O)(=O)Nc1ccc(F)c(C(=O)c2c[nH]c3ncc(-c4ccc(Cl)cc4)cc23)c1F + CC(Nc1ncnc2nc[nH]c12)c1cc2cccc(Cl)c2c(=O)n1-c1ccccc1
- IC50 (second compound 0.0316 µM): 7.99 µM
- IC50 (second compound 0.1 µM): 6.5 µM
- IC50 (second compound 0.316 µM): 6.36 µM
- IC50 (second compound 1 µM): 6.31 µM
- IC50 (second compound 3.16 µM): 6.66 µM
- IC50 (second compound 10 µM): 6.18 µM
- viability, T/C [5]: 121%
- viability, T/C [6]: 97.5%
- viability, T/C [37]: 99.8%
- viability, T/C [38]: 116%
- viability, T/C [39]: 131%
- viability, T/C [40]: 34.7%
- viability, T/C [11]: 95.8%
- viability, T/C [12]: 91.7%
- viability, T/C [41]: 101%
- viability, T/C [42]: 99.9%
- viability, T/C [43]: 133%
- viability, T/C [44]: 17.6%
- viability, T/C [17]: 82.2%
- viability, T/C [18]: 79.8%
- viability, T/C [45]: 92.4%
- viability, T/C [46]: 104%
- viability, T/C [47]: 134%
- viability, T/C [48]: 18.5%
- viability, T/C [23]: 102%
- viability, T/C [24]: 107%
- viability, T/C [49]: 121%
- viability, T/C [50]: 89.5%
- viability, T/C [51]: 101%
- viability, T/C [52]: 16.6%
- viability, T/C [29]: 121%
- viability, T/C [30]: 119%
- viability, T/C [53]: 83.4%
- viability, T/C [54]: 116%
- viability, T/C [55]: 117%
- viability, T/C [56]: 16.2%
- viability, T/C [35]: 79.5%
- viability, T/C [36]: 99%
- viability, T/C [57]: 103%
- viability, T/C [58]: 91.9%
- viability, T/C [59]: 99.6%
- viability, T/C [60]: 17.9%
